Experimental data: paper PMC11574108, “4-Furanylvinylquinoline derivative as a new scaffold for the design of oxidative stress initiator and glucose transporter inhibitor drugs” (Scientific Reports, 2024)

How the values were obtained:
p21 = experiment: Western blot, p21 protein level; type: cell-based, human; conditions: HCT 116 p53+/+, 0.5 and 1 µM, 24 and 48-h
Procedure: The cells (500,000) were seeded in 35 mm Petri dishes (Nunc) and incubated in a solution of the tested compound (0.5 µM and 1 µM) for 24 h and 48 h. The cells were then dissociated using trypsin, collected in Eppendorf tubes, and centrifuged at 2,000 rpm. Next, cell pellets were resuspended in complete RIPA buffer containing a Halt Protease Inhibitor Cocktail and Halt Phosphatase Inhibitor Cocktail along with 0.5 M EDTA (all reagents from Thermo Fisher Scientific) and lysed on ice for 20 min. Afterward, the lysates were sonicated and centrifuged at 10,000 rpm for 10 min at 4 °C. The obtained supernatants were collected for further analysis. The protein concentration was determined using a Micro BCA™ Protein Assay Kit (Thermo Fisher Scientific) according to the manufacturer’s procedure. Equal amounts of proteins (16 µg) were electrophoresed on SDS-Page gels and transferred onto nitrocellulose membranes. Novex Sharp Pre-Stained Protein Standard (Thermo Fisher Scientific) was used as a colored molecular weight marker. […]
The overexpression of p21 also causes cell cycle inhibition via its binding to the […]. […] The cell cycle in the U-251 cell line was inhibited precisely in the S-phase, and it is, therefore, likely that the p21 protein expression was not detected in the glioma cells tested (data not shown).

GLUT-1 = experiment: Western blot, GLUT-1 protein level; type: cell-based, human
Procedure: The cells (500,000) were seeded in 35 mm Petri dishes (Nunc) and incubated in a solution of the tested compound (0.5 µM and 1 µM) for 24 h and 48 h. The cells were then dissociated using trypsin, collected in Eppendorf tubes, and centrifuged at 2,000 rpm. Next, cell pellets were resuspended in complete RIPA buffer containing a Halt Protease Inhibitor Cocktail and Halt Phosphatase Inhibitor Cocktail along with 0.5 M EDTA (all reagents from Thermo Fisher Scientific) and lysed on ice for 20 min. Afterward, the lysates were sonicated and centrifuged at 10,000 rpm for 10 min at 4 °C. The obtained supernatants were collected for further analysis. The protein concentration was determined using a Micro BCA™ Protein Assay Kit (Thermo Fisher Scientific) according to the manufacturer’s procedure. Equal amounts of proteins (16 µg) were electrophoresed on SDS-Page gels and transferred onto nitrocellulose membranes. Novex Sharp Pre-Stained Protein Standard (Thermo Fisher Scientific) was used as a colored molecular weight marker. The membranes were blocked in 5% non-fat milk prepared in TPBS (PBS supplemented by 0.1% Tween-20) for 1 h. After blocking, the membranes were cut, and then incubated with specific primary monoclonal antibodies (all purchased from Cell Signaling) overnight at 4 °C. The antibodies for the target proteins (CDK1 Mouse mAb #9116, p53 Mouse mAb #2524, FAS Mouse mAb #8023, GLUT-1 Rabbit mAb #12939, HO-1 Rabbit mAb #5853, p21^Waf1/Cip1 Rabbit mAb #2947, PARP #9542) were diluted 1:1000, while the antibodies for the reference proteins (GAPDH Rabbit mAb #2118, β-actin Mouse mAb #3700, and vinculin Rabbit mAb #13901) were diluted 1:2000. The following day, the membranes were washed in TPBS and incubated with horseradish peroxidase (HRP)-conjugated secondary antibodies (Anti-rabbit IgG, HRP-linked Antibody #7074 or Anti-mouse IgG, HRP-linked Antibody #7076) for 1 h at room temperature. The membranes were then washed in TPBS and incubated with a SuperSignal™ West Pico Chemiluminescent Substrate (Thermo Fisher Scientific). Finally, the membranes were visualized using a ChemiDoc™ XRS + System (Bio-Rad). The experiments were carried out four to five times. The densitometric analysis was performed using ImageJ software (Wayne Rasband, National Institutes of Health, USA).
We, therefore, decided to test the effect of the tested compound on the level of the main glucose transporter, GLUT-1. […] The validity of the described conclusions was confirmed by the results that were obtained for doxorubicin. in which p53 activation occurred at both tested time points with a concomitant decrease in the GLUT-1 levels. […] The results that were obtained from the measurements of the expression of this protein were so interesting, and at the same time, inconclusive that we additionally decided to determine the effect of the tested derivative 13 on the expression of the genes encoding selected glucose transporters.

U-251 = experiment: Cell cycle assay (flow cytometry); type: cell-based, human; conditions: 2xIC50, 24-h treatment; control 20.44%
Procedure: (§1) The cells were seeded in 35 mm Petri dishes, 200,000 cells per dish, and incubated overnight under standard conditions at 37 °C. […] After a 24-h incubation, the experiment was carried out using a Muse™ Cell Cycle Kit (Millipore) according to the available procedure. Briefly, the cells were detached and collected in Eppendorf tubes. The samples were then washed with cold phosphate-buffered saline (PBS), centrifuged at 300 g (5 min), and fixed in ice-cold 70% ethanol. The cells were stored at -20 °C overnight. The next day, the samples were sequentially washed with cold PBS, centrifuged resuspended in 200 µL of Muse™ Cell Cycle Reagent, and incubated in the dark for 30 min at room temperature. The percentage of cells in specified cell cycle phases was estimated using a Muse™ Cell Analyzer (Millipore). The experiments were carried out three times.
(§2) When analysing the antiproliferative activity of the tested compounds, we decided to determine the molecular mechanism of action of the most promising derivative 13 in three cell lines with different statuses of p53, for which the derivative has the highest activity. In order to achieve this goal, we started by studying the changes in the cell cycle in order to determine why proliferation stops. To evaluate the effect of derivative 13 on the cell cycle progression, we used flow cytometry. After a 24-h treatment, we observed a significant inhibition in the G2/M phase in both HCT 116 cell lines (Fig. 4A).

HCT 116 p53+/+ = experiment: Cell cycle assay (flow cytometry); type: cell-based, human; conditions: 2xIC50, 24-h treatment; control 30.81%
Procedure: as §1, §2

HCT 116 p53-/- = experiment: Cell cycle assay (flow cytometry); type: cell-based, human; conditions: 2xIC50, 24-h treatment; control 34.35%
Procedure: as §1, §2

CT-DNA = experiment: Intercalation, spectrophotometric study on CT-DNA; type: binding, calf; conditions: 18 µM CT-DNA, 1.5 h, 37 °C, absorption spectra
Procedure: Lyophilized calf-thymus DNA (CT-DNA; Sigma-Aldrich) was dissolved in 10 mM Tris-HCl (pH 7.9), mixed gently, and kept overnight at 4 °C. The purity of the CT-DNA solution was determined by measurement of the ratio of UV absorbance at 260 and 280 nm. […] The tested compound was dissolved in DMSO to give a concentration of 8.35 mM. This stock solution was used for preparing new solutions (25, 12.5, 6, and 3 µM) in 1 mL of 10 mM Tris-HCl (pH 7.9). Next, 18 µM CT-DNA was added to the prepared solutions, and the samples were incubated for 1.5 h at 37 °C with occasional vortexing. The measurements of the absorption spectra were performed using a Hitachi U-2900 spectrophotometer in the range of 200–500 nm. The obtained data were analysed using GraphPad Prism v.8.0 (USA).
To determine whether and to what extent the compound interacts with DNA, we also performed a spectrophotometric study on CT-DNA. […] (Fig. S2). Nevertheless, under the effect of stress-induced DNA damage in cells, […], which inhibited the CDK1 and cyclin B1 complex. This had the effect of arresting the cell cycle in the G2/M phase in an attempt to repair the DNA damages or induce apoptosis[29],[30]. Abnormal CDK1 activation is often thought to be connected with tumourigenesis. […]

O=[N+]([O-])c1ccc(/C=C/c2ccnc3ccccc23)o1 [Compound 13]
p21 protein expression vs control (p21): more than two-fold increase
GLUT-1 protein level vs control (GLUT-1; HCT 116 p53+/+, 24-h incubation): decrease
GLUT-1 protein level vs control (GLUT-1; HCT 116 p53+/+, 48-h): rapid activation
GLUT-1 protein level vs control (GLUT-1; HCT 116 p53-/-): decrease
GLUT-1 protein level vs untreated cells (GLUT-1; U-251): not detectable
percentage of cells in S phase (U-251): 35.59%
population of cells in G2/M phase (HCT 116 p53+/+): 49.78%
population of cells in G2/M phase (HCT 116 p53-/-): 44.95%
hypochromism (CT-DNA): 10.97%
